Like-named read-outs stand apart in the source and are kept apart here.
How the values were obtained:
[1] = tested on: human melanoma cell line Arn8 (p53-responsive reporter); assay: p53-dependent transcriptional activity, β-galactosidase reporter; assay type: cell-based; conditions: concentration inducing maximum of β-galactosidase activity
Procedure: Cell lines established from the human cervical carcinoma (HeLa), human breast carcinoma (MCF-7, BT549 and BR474), human osteosarcoma (HOS), human colon carcinoma (HT29), murine fibroblasts (T221acZ) and the human melanoma (Arn8) cell lines were cultured in Dubecco's Modified Eagle Medium (DMEM) supplemented with 10% fetal bovine serum. Tested compounds were added from 50 mM stock solution in dimethyl-sulphoxide (DMSO) into the culture medium at final concentration 20 μM. Control cells received an equivalent volume of DMSO.
β-galactosidase activity of human melanoma cell line […] T221acZ (both stabile transfected with a p53-responsive reporter construct pRGCΔfoslacZ) (Frebung et al., Cancer Res., 52, 1992-6976) was determined. For the determination of total β-galactosidase activity, cells were lysed by 3 freeze-thaw cycles in 0.25 M Tris pH 7.5, and lysates were assayed as described by Sambrook et al., Mol. cloning, New York, 1989.
Effect of 25 and related compounds on activation of p53 protein was also analyzed in human melanoma cell line Arn8 and murine fibroblast cell line T22LacZ expressing β-galactosidase under control of p53 responsive promoter. Induction of wt p53 in these cells treated with 20 μM 25 (6, 12 and 24 hrs) leads to activation of responsive promoter and consequently to expression of β-galactosidase. Arn8 and T221acZ cells treated with 25 were fixed and examined microscopically for β-galactosidase activity using X-gal substrate leading to about 25% blue-colored cells compared to less than 1% of blue-colored cells in DMSO-treated control cells (data not shown). The total β-galactosidase activity in Arn8 cells was also assessed using colorimetric assay.

β-adrenergic receptors = assay: Modulation of isoproterenol-induced cAMP synthesis in rat C6 glioma; assay type: cell-based; conditions: cAMP synthesis induced by 5 μM (−) isoproterenol; for IC50: read-out: I50
Procedure: Mechanism of action of novel compounds is presented on FIG. 3. Rat C6 glioma (ATCC N° CCL107) was cultivated in monolayer in serum-free chemically defined medium containing Ham's F10/minimal essential medium (1:1 vol/vol), 2 mM L-glutamine, 1% (vol/vol) minimal essential medium vitamins (100×), 1% (vol/vol) minimal essential medium nonessential amino acids (100×), 100 U/ml penicillin, 100 μg/ml streptomycin and 30 nM sodium selenide. Incubation was at 37° C. in a humidified atmosphere. Assays were performed in the logarithmic growth phase at a density of 2.5×10^5 cells/cm^2. Intracellular cAMP synthesis was induced by addition of 5 μM (−) isoproterenol. After 30 min incubation at 37° C. the medium was removed and the cellular amount of cAMP determined using the cAMP-enzyme immunoassay kit of Amersham. The I50 is determined from a dose-response curve in duplicate.
The effect of seven purine-analogs was measured after simultaneous addition with isoproterenol.

cdk1/cyclin B (CDC2) = cdk1/cyclin B (CDC2) (Homo sapiens, UniProt P06493); assay: CDK inhibition assay, cdk1/cyclin B (CDC2) kinase, histone phosphorylation; assay type: biochemical
Outline: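 Human cdk1/cyclin B activity measured with 1 mg/ml histone substrate, 15 μM ATP plus [γ-32P]ATP, in HEPES pH 7.4 buffer with 10 mM MgCl2. Phosphorylation quantified by phosphorimaging; activity expressed as % of maximum, IC50 from dose-response curves by graphic analysis.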

[2] = tested on: PHA-stimulated lymphocytes (PBMC); assay: Proliferation of PHA-stimulated lymphocytes (PBMC), flow cytometric cell count; assay type: cell-based, human; conditions: 96 hours, IL-2
Procedure: Peripheral blood mononuclear cells (PBMC): Human peripheral blood mononuclear cells were isolated by density gradient (Ficoll-Hypaque) (LSM, ICN Biomedicals Inc.). PBMC were stimulated with 5 μg/ml phytohemaglutinin A (PHA) (Sigma) during 24-48 hours in IMDM supplemented with 10% FCS at 37° C. After washing off the PHA, PBMC were incubated with interleukin-2 (IL-2) (10 U/ml) (Genzyme).
(§1) Cells were plated at 10000 per well in 200 μl IMDM medium and incubated with 0-50 μM of the novel compounds (Tab 8), by addition of drug directly to the culture medium and incubated at 37° C. for 96 hours (Tab 8). Absolute cell number was determined by addition of a known concentration Fluoresbrite microspheres (FITC) (Polysciences, Inc.). The absolute number of cells/well was calculated as: {(total number of beads added/well)/(number of beads measured)×(number of measured cells in the gate of interest)}. All analyses were performed with a FACScan (BD), using CELLQuest software (Becton Dickinson).
PHA-stimulated lymphocytes (PBMC) were tested for their cytotoxicity as one of the normal counterparts of the cell lines. Cells were grown for 96 hours in the presence of IL-2 and different concentrations of the novel compounds and cell number was counted on the flow cytometer.

[3] = tested on: myeloid leukemia KG1 cell line; assay: Cell proliferation of KG1, flow cytometric cell count; assay type: cell-based, human; conditions: 96 hours; for IC50: read-out: KG1 IC50
Procedure: (§2) Cell lines: Human leukemic cell lines were obtained from the American Type Culture Collection (ATCC, Rockville, Md., USA). They were cultured in Iscove's Modified Dulbecco's Medium (IMDM) supplemented with 10% heat inactivated fetal calf serum (FCS), 200 U/ml penicillin, 200 μg/ml streptomycin and 1 μg/ml amphotericin B. Cells were cultured in a 5% CO2-95% air fully humidified incubator. For effects on clonogenic output, 1000 cells/well were plated in duplicate in methylcellulose (0.9%), supplemented with 20% FCS for 14 days.
as §1
(§3) Response of the myeloid leukemia KG1 and T-lymphocyte leukemia Molt3 cell lines to the cytostatic effect of the novel compounds was determined using the above-mentioned standardized bead suspension that was used to determine the absolute cell number by flow cytometric (FCM) measurement. Cells were grown in the presence of increasing concentration of the novel compounds.
To determine reversibility of the effects of the novel compounds, cells were plated at 10000 per well and exposed to 0-50 μM of the compounds for the time indicated, followed by washing in phosphate-buffered saline (PBS) (Life Technologies) and reseeded into drug-free medium for 7 additional days. An identical set of cells was plated and exposed to the drugs for 7 additional days. After 7 days (168 hours), the relative cell number was assayed by flow cytometry.

[4] = tested on: T-lymphocyte leukemia Molt3 cell line; assay: Cell proliferation of Molt3, flow cytometric cell count; assay type: cell-based, human; conditions: 96 hours
Procedure: as §2, §1, §3

[5] = tested on: Cytokinin-dependent tobacco callus Nicotiana tabacum L. cv. Wisconsins 38; assay: Tobacco callus bioassay for cytotoxicity (herbicidal activity); assay type: cell-based; conditions: Nicotiana tabacum, 672 h
Procedure: The novel compounds have also been tested in tobacco callus bioassay for cytotoxicity (herbicidal activity) and induction of cell death. The compounds to be tested were dissolved in dimethylsulfoxide (DMSO) and the solution brought up to 10^−3 M with distilled water. […] Cytokinin-dependent tobacco callus Nicotiana tabacum L. cv. Wisconsins 38 Murashige-Skoog medium, containing per 1 liter: 4 μmol nicotinic acid, 2.4 μmol pyridoxine hydrochloride, 1.2 μmol thiamine, 26.6 μmol glycine, 1.37 μmol glutamine, 1.8 μmol myo.inositol, 30 g of sucrose, 8 g of agar, […] α-naphthylacetic acid and 0.5 μmol 6-benzylaminopurine. Sub cultivation was carried out every three weeks. Fourteen days before the bioassay, the callus tissue was transferred to the media without 6-benzylaminopurine. Compounds were tested with two different concentrations of 6-benzylaminopurine (10^−5 M and 10^−6 M). Inhibitory growth activity was determined from the increase in fresh callus weight after four weeks of cultivation. Five replicates were prepared for each concentration tested and the entire test was repeated at least twice.

Chain of cdk1/cyclin B (CDC2) (P06493 whole entry, species assumed): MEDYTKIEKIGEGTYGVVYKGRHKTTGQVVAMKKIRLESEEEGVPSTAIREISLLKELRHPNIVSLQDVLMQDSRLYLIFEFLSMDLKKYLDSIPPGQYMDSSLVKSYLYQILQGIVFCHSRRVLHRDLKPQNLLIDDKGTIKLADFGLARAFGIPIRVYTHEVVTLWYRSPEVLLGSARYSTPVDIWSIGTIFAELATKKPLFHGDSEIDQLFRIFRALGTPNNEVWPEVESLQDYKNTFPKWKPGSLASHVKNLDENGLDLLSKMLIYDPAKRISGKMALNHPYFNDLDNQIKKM
Chain of cdk1/cyclin B (CDC2) (P14635 whole entry partner, species assumed): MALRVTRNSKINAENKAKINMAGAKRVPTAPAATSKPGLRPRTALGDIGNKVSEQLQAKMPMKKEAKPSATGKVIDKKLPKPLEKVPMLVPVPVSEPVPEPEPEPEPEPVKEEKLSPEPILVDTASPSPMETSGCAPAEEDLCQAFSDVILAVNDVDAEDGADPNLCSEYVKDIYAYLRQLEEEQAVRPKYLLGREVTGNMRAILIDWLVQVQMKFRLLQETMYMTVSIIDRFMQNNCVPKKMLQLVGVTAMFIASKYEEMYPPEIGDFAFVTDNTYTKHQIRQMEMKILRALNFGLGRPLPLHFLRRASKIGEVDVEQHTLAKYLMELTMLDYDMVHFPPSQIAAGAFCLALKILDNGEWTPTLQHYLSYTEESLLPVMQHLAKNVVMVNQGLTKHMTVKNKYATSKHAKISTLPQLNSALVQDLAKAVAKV

Row | Compound | IC50 (cdk1/cyclin B (CDC2); cell free system (Table 8)) | IC50 [2] | IC50 [3] | IC50 [4] | other results
1 | CC[C@H](CO)Nc1nc(NCc2ccc(OC)cc2)c2[nH]nc(C(C)C)c2n1 | – | – | – | – | Max β-Gal. Activtity Conc. [1]: 0.8 µM
2 | COc1ccc(CNc2nc(NC3CCCC3)nc3c(C(C)C)n[nH]c23)cc1 | – | – | – | – | Max β-Gal. Activtity Conc. [1]: 21 µM
3 | CC[C@H](CO)Nc1nc(NCc2ccc(O)cc2)c2[nH]nc(C(C)C)c2n1 | – | – | – | – | Effect: activation (β-adrenergic receptors; simultaneous addition, 30 min): 1.8-fold activation
4 | CC(C)c1n[nH]c2c(NC(CO)c3ccccc3)nc(N3CCOCC3)nc12 (centres unmarked) [Compound 85, 5-(morpholino)-7-(1-phenyl-2-hydroxyethylamino)-3-isopropylpyrazolo[4,3-d]pyrimidine] | 5500 nM | – | – | – | IC50 ([2]; Homo sapiens, Lymphocyte): 20 ± 7.7 µM; IC50 ([3]; Homo sapiens, KG-1): 28 ± 1.5 µM; IC50 ([4]; Homo sapiens, MOLT-3): 20 ± 1.3 µM
5 | 5-(3-hydroxypropylamino)-7-[N-(3,4-dihydroxybenzyl-N-methyl]amino-isopropylpyrazolo[4,3-d]pyrimidine [Compound 42] | 2600 nM | 5.9 ± 2.9 µM | 10.7 ± 0.3 µM | 13 ± 2.1 µM | –
6 | 5-(5-cyanopentyl)-7-[(R,S)-(1-phenyl-2-hydroxyethyl)amino]-9-isopropylpurine [Compound 123] | 33000 nM | 33 ± 4.4 µM | 42 ± 4.8 µM | 42.5 ± 6 µM | –
7 | CC(C)c1n[nH]c2c(NCc3ccccc3)nc(NC(CO)C(C)C)nc12 (centres unmarked) | – | – | – | – | Effect (β-adrenergic receptors; simultaneous addition, 30 min): inhibition; IC50 (β-adrenergic receptors): 25 ± 2 µM
8 | 5-(hexylamino)-7-[N-(3,4-dihydroxybenzyl-N-methyl]amino-isopropylpyrazolo[4,3-d]pyrimidine [Compound 41] | 1000 nM | 10 ± 2 µM | 15.3 ± 2.4 µM | 14 ± 3.2 µM | –
9 | CC(C)c1n[nH]c2c(SCc3ccccc3)nc(NCCCO)nc12 [Compound 145, 5-(3-hydroxypropylamino)-7-benzylthio-3-isopropylpyrazolo[4,3-d]pyrimidine] | > 50000 nM | – | – | – | IC50 ([2]; Homo sapiens, Lymphocyte): 18 ± 1.6 µM; IC50 ([3]; Homo sapiens, KG-1): 42 ± 5 µM; IC50 ([4]; Homo sapiens, MOLT-3): 19 ± 2 µM
10 | 5-(2-hydroxyethylthio)-671-phenyl-2-hydroxyethylamino-3-isopropylpyrazolo[4,3-d]pyrimidine [Compound 96] | 5800 nM | 8 ± 0.5 µM | 9 ± 0.4 µM | 10 ± 1.2 µM | Effectiveness on KG1 compared with normal PBMC [3]: significantly more effective on KG1 than on normal PBMC
11 | CC(C)c1n[nH]c2c(NCc3ccccc3)nc(NCCCO)nc12 [Compound 7, 5-(3-hydroxypropylamino)-7-benzylamino-3-isopropylpyrazolo[4,3-d]pyrimidine] | 1000 nM | – | – | – | IC50 (cdk1/cyclin B (CDC2)): 200 nM; IC50 ([2]; Homo sapiens, Lymphocyte): 9 ± 0.2 µM; IC50 ([3]; Homo sapiens, KG-1): 25 ± 4.4 µM; IC50 ([4]; Homo sapiens, MOLT-3): 24 ± 2.2 µM
12 | CC(C)c1n[nH]c2c(Nc3cccc(Cl)c3)nc(NC3CCCC3)nc12 | – | – | – | – | Max β-Gal. Activtity Conc. [1]: 11.5 µM
13 | CC(C)c1n[nH]c2c(NCc3ccccc3)nc(NCCCN)nc12 [Compound 17, 5-(3-aminopropylamino)-7-benzylamino-3-isopropylpyrazolo[4,3-d]pyrimidine] | – | – | – | – | IC50 (cdk1/cyclin B (CDC2)): 80 nM; IC50 (β-adrenergic receptors): 25 ± 2 µM; IC50 ([5]; read-out: 10^−5 M BAP IC50, 10^−5 M 6-benzylaminopurine, four weeks): > 50 µM; IC50 ([5]; read-out: 10^−6 M BAP IC50, 10^−6 M 6-benzylaminopurine, four weeks): 48 µM
14 | CC(C)c1n[nH]c2c(N[C@@H](CO)c3ccccc3)nc(NC[C@H](O)CO)nc12 [Compound 158, 5-(2,3-dihydroxypropylamino)-7-[(R,S)-(1-phenyl-2-hydroxyethyl)amino]-3-isopropylpyrazolo[4,3-d]pyrimidine] | > 50000 nM | 10 ± 1 µM | 12 ± 1 µM | 13.4 ± 1.4 µM | –
15 | CCC(CO)Nc1nc(NCc2ccc(O)c(O)c2)c2[nH]nc(C(C)C)c2n1 (centres unmarked) [Compound 47, 5-(1-ethyl-2-hydroxyethylamino)-7-(3,4-dihydroxybenzyl)amino-3-isopropylpyrazolo[4,3-d]pyrimidine] | 1200 nM | – | – | – | IC50 ([2]; Homo sapiens, Lymphocyte): 3 ± 1.2 µM; IC50 ([3]; Homo sapiens, KG-1): 8 ± 1 µM; IC50 ([4]; Homo sapiens, MOLT-3): 10 ± 1 µM
16 | 5-(3-hydroxypropylamino)-7[N-(3,4-dihydroxybenzyl-N-methyl]amino-3-isopropylpyrazolo[4,3-d]pyrimidine [Compound 50] | – | 15 ± 7.3 µM | 21 µM | 21 µM | –
17 | 5-(hexylamino)-7-(1-phenyl-2-hydroxyethylamino)-3-isopropylpyrazolo[4,3-d]pyrimidine [Compound 98] | – | – | – | – | Effect (β-adrenergic receptors; simultaneous addition, 30 min): inhibition; IC50 (β-adrenergic receptors): 8 ± 1 µM
